The subject of the test is FAM-SpA1-1/SpA1-2 (T-2 toxin split aptamer) (DNA, aptamer) CAGCTCAGAAGCTTGATCCTG/TATATCAAGCATAGAGGTG
The following applies: 5 mM K+, 100 mM Na+, 1 mM Mg2+; 50 mM Tris-HCl, 1% methanol, pH 7.4, room temperature; sensor selectivity; concentration tested not stated.

With `CCCC[C@@H](C)[C@@H](OC(=O)C[C@@H](CC(=O)O)C(=O)O)[C@H](C[C@@H](C)C[C@H](O)CCCC[C@@H](O)C[C@H](O)[C@H](C)N)OC(=O)C[C@@H](CC(=O)O)C(=O)O`, the binding result was “no”.
For the compound `C[C@@H]1Cc2c(Cl)cc(C(=O)N[C@@H](Cc3ccccc3)C(=O)O)c(O)c2C(=O)O1`, the binding entry is recorded as “no”.
Take `C[C@H]1CCCC(=O)CCC/C=C/c2cc(O)cc(O)c2C(=O)O1`: the binding result was “no”.
